According to patent US8778896B2, “Levoisovalerylspiramycin I, II or III, preparations, preparation methods and uses thereof” (Shenyang Tonglian Group Co., Ltd., priority 2010, dated 2014):
≈ marks a conversion by molar mass, not a printed value.

What was measured:
enterococcus32 [1] = test: MIC against the infecting test organism; type: cell-based, enterococcus; settings: Enterococcus, read-out: MIC
staphylococcus aureus76 = test: MIC against the infecting test organism; type: cell-based, staphylococcus aureus; settings: read-out: MIC
[2] = test system: streptococcus pneumoniae57; test: MIC against the infecting test organism; type: cell-based, streptococcus pneumoniae; settings: read-out: MIC
[3] = Acute toxicity on mice via oral administration; settings: 4000 mg/kg
Procedure: Both mice and rats take drugs orally (levoisovalerylspiramycin I, II and III prepared in Embodiment 1)
After observing the mice and rats for two days before test, and those without abnormal conditions is carried out test. Don't give anything to eat to mice and rats overnight before test. […] In this test, feed drugs to mice and rats respectively as per 4000 mg/kg, wherein, mice follow 100 mg/ml, with intragastric administration capacity of 0.6-0.8 ml per one, while rats 173 mg/ml, with intragastric administration capacity of 0.8˜1.0 ml/50 g. Observe those taking drugs for one week for toxic reaction and death.

[4] = test system: Chlamydia Trachomatis B/TW-5/OT; test: Chlamydia in vitro MIC, McCoy cells, immunofluorescence; type: cell-based; settings: 48 hours, read-out: MIC
[5] = test system: streptococcus pneumoniae18; test: MIC against the infecting test organism; type: cell-based, streptococcus pneumoniae; settings: read-out: MIC
enterococcus32 [6] = test: Curative effect on mouse with abdominal infection (ED50); type: in vivo, enterococcus; settings: Enterococcus, 168 h, enterococcus32, challenging dose 5.4 × 10^4 CFU/0.5 ml, deaths in 7 days, Bliss, read-out: ED50
Procedure: (§1) Test method: preparation of infection bacterial liquid: taking out the test bacterial liquid which is kept in a refrigerator at −80[…] to room temperature for about 1 h, then inoculating streptococcus pneumonia, pyogenic streptococcus and enterococcus absorbing 0.1 ml bacterial liquid respectively to 2 ml MH broth (add 10% inactivated horse serum), and inoculating 0.1 ml bacterial liquid of staphylococcus aureus to 2 ml MH broth according to the same method above; putting it in an incubator at 37[…] to be cultivated for 18 h, to obtain original bacterial liquid; diluting the original bacterial liquid with 5% gastric mucin to make animals infected with 100% lethal bacteria, to obtain infection bacterial liquid.
(§2) The clinical route of administration of carrimycin is proposed to be oral administration, thus intragastric administration is adopted in carrimychin test. Levoisovalerylspiramycin I (obtained in Embodiment 1) and of crystalline compound of levoisovalerylspiramycin I (prepared in Embodiment 27) are fed to animals via […].
(§3) After the mice are infected, respectively feed each mouse 0.2 ml via intragastric administration at 0.5 to 6 h, and they have no adverse reaction. Observe the number of deaths in 7 days, and calculate the 50% effective dose (ED50) of each drug for the infected mouse and compare the protective effect of drugs by Bliss program.

[7] = test system: pyogenic streptococcus 102; test: as above; type: in vivo; settings: Streptococcus, 102, 168 h, pyogenic streptococcus 102, challenging dose 7.8 × 10^4 CFU/0.5 ml, deaths in 7 days, Bliss, read-out: ED50
Procedure: as §1, §2, §3

[8] = test system: pyogenic streptococcus 772; test: as above; type: in vivo; settings: Streptococcus, 772, 168 h, pyogenic streptococcus 772, challenging dose 6.9 × 10^3 CFU/0.5 ml, deaths in 7 days, Bliss, read-out: ED50
Procedure: as §1, §2, §3

[9] = test system: pyogenic streptococcus 119; test: as above; type: in vivo; settings: Streptococcus, 119, 168 h, pyogenic streptococcus 119, challenging dose 4.9 × 10^4 CFU/0.5 ml, deaths in 7 days, Bliss, read-out: ED50
Procedure: as §1, §2, §3

[10] = test system: streptococcus pneumoniae (112); test: Clinical isolates, agar double dilution method; type: cell-based; settings: 112 clinical isolates of streptococcus pneumoniae; for MIC50: read-out: MIC50; for MIC90: read-out: MIC90
[11] = test system: adult acute respiratory infections caused by sensitive bacteria; test: Clinical test versus Azithromycin, multi-center random double blind; type: in vivo; settings: patients 18 to 65 years
Procedure: Adopt a multi-center, random, two blind, double simulation control test, which is carried out in 5 hospitals concurrently according to the unified clinical testing program.
1. Patients from 18 to 65 years old (men and women);
2. Sensitive acute respiratory infections caused by sensitive bacteria include acute bacterial pharyngitis, acute suppurative tonsillitis, acute tracheobronchitis, mild pneumonia and acute nasosinusitis etc;
3. Any subject shall sign an informed consent before being selected.
4. All subjects shall be contracepted in the research period and within at least 3 months upon being dosed.
1. Those with hepatic or renal insufficiency (Blood Cr>1.5 mg/dl and ALT>normal upper limit)
2. The women in pregnancy or lactation
3. Those with gastrointestinal tract diseases, who cannot take drugs orally.
4. Those who take antibacterial within one week before the selection.
According to statistics on the test results by statistics experts, the clinical efficacy (FAS) is: […]

staphylococcus aureus12 = test: MIC against the infecting test organism; type: cell-based, staphylococcus aureus; settings: read-out: MIC
enterococcus (106) = test: Clinical isolates, agar double dilution method; type: cell-based; settings: 106 clinical isolates of enterococcus; for MIC50: read-out: MIC50; for MIC90: read-out: MIC90
[12] = test system: streptococcus pneumoniae3; test: MIC against the infecting test organism; type: cell-based, streptococcus pneumoniae; settings: read-out: MIC
staphylococcus aureus16 = test: MIC against the infecting test organism; type: cell-based, staphylococcus aureus; settings: read-out: MIC
[13] = test system: Mycoplasma Urealyticum and Mycoplasma Pneumoniae strains; test: Mycoplasma in vitro MIC (U-PPLO broth); type: cell-based; settings: for MIC: Mycoplasma, determined 4 times, final MIC (24 h), read-out: MIC; for Uu resistant effect: in words
Procedure: 1. Test methods: adding U-PPLO 0.8 ml to each pore of aseptic 12-pore cell culture plate (adding 0.9 ml to inoculum control pore and 1.0 ml to medium control pore).
2. Add 10^4CCU/ml Uu inoculum 0.1 ml to each experimental pore. The final dose in the pore is 10^3CCU/ml (the medium control pore will not be added with inoculum).
3. Divide into 3 groups (100 μg/ml, 10 μg/ml and 1 μg/ml antibiotic stock solution), Use aseptic Tip to add antibiotic for test to each pore: 100 μl, 50 μl, 25 μl, 12.5 μl according to the double degradation concentration gradient. (The inoculum and medium control pores will not be added with the antibiotic, and meanwhile the antibiotic control pore is arranged.)
4. Blend all pores evenly. Seal the culture plate by tapes and place it in a 37[…] box for culture.
5. On 17-24 hours after the test, observe and record the Uu growth situation. When Uu inoculum control pore presents a positive growth, the minimal antibiotic concentration, which can suppress the growth of Uu, is the MIC of sample.

Row | SMILES | MIC (enterococcus32 [1]) | MIC (staphylococcus aureus76) | MIC [2] | MIC [4] | MIC [5] | ED50 (enterococcus32 [6]) | ED50 [7] | ED50 [8] | ED50 [9] | MIC50 [10] | MIC90 [10] | adverse reaction [11] | clearance of pathogens [11] | clinical efficacy (FAS) [11] | MIC (staphylococcus aureus12) | MIC50 (enterococcus (106)) | MIC90 (enterococcus (106)) | MIC [12] | MIC (staphylococcus aureus16) | Uu resistant effect [13] | also measured
1 | COC1C(OC(C)=O)CC(=O)OC(C)C/C=C/C=C/C(OC2CCC(N(C)C)C(C)O2)C(C)CC(CC=O)C1OC1OC(C)C(OC2CC(C)(O)C(OC(=O)CC(C)C)C(C)O2)C(N(C)C)C1O (centres unmarked) [Levoisovalerylspiramycin II, levoisovalerylspiramycin II] | 0.25 µg/mL (≈ 0.258 µM) | 0.25 µg/mL (≈ 0.258 µM) | 0.06 µg/mL (≈ 0.0619 µM) | 0.25 µg/mL (≈ 0.258 µM) | 0.03 µg/mL (≈ 0.031 µM) | 70.2 mg/kg | 63.2 mg/kg | 24.6 mg/kg | 52.8 mg/kg | 0.12 µg/mL (≈ 0.124 µM) | 2 µg/mL (≈ 2.06 µM) | 2.5% | 97.56% | 92.30% | 1 µg/mL (≈ 1.03 µM) | 1 µg/mL (≈ 1.03 µM) | 16 µg/mL (≈ 16.5 µM) | 0.12 µg/mL (≈ 0.124 µM) | 0.25 µg/mL (≈ 0.258 µM) | favorable Uu resistant effect | LD50 at 1 week ([3]; mouse, in vivo, po): > 4000 mg/kg; Mortality rate (%) ([3]; mouse, in vivo, po, 1 week): 35%; mortality ([3]; mouse, in vivo, po, 1 week): 7; MIC [13]: 0.025 to 0.125 µg/mL (≈ 0.0258 to 0.129 µM)
2 | COC1C(O)CC(=O)OC(C)C/C=C/C=C/C(OC2CCC(N(C)C)C(C)O2)C(C)CC(CC=O)C1OC1OC(C)C(OC2CC(C)(O)C(OC(=O)CC(C)C)C(C)O2)C(N(C)C)C1O (centres unmarked) [Levoisovalerylspiramycin I, levoisovalerylspiramycin I] | 0.5 µg/mL (≈ 0.539 µM) | 0.5 µg/mL (≈ 0.539 µM) | 0.06 µg/mL (≈ 0.0647 µM) | 0.25 µg/mL (≈ 0.27 µM) | 0.03 µg/mL (≈ 0.0324 µM) | 77.5 mg/kg | 66.4 mg/kg | 26.1 mg/kg | 57.2 mg/kg | 0.12 µg/mL (≈ 0.129 µM) | 2 µg/mL (≈ 2.16 µM) | 2.5% | 97.56% | 92.30% | 1 µg/mL (≈ 1.08 µM) | 1 µg/mL (≈ 1.08 µM) | 32 µg/mL (≈ 34.5 µM) | 0.12 µg/mL (≈ 0.129 µM) | 0.5 µg/mL (≈ 0.539 µM) | favorable Uu resistant effect | Mortality rate (%) ([3]; mice, oral): 35%; mortality ([3]; mice, oral, deaths of 20 animals, observed one week): 7; LD50 at 1 week ([3]; mouse, in vivo, po): > 4000 mg/kg; MIC [13]: 0.025 to 0.125 µg/mL (≈ 0.027 to 0.135 µM)
3 | CC[C@H]1OC(=O)[C@H](C)[C@@H](O[C@H]2C[C@@](C)(OC)[C@@H](O)[C@H](C)O2)[C@H](C)[C@@H](O[C@@H]2O[C@H](C)C[C@H](N(C)C)[C@H]2O)[C@](C)(O)C[C@@H](C)C(=O)[C@H](C)[C@@H](O)[C@]1(C)O [erythrocin, reference compound] | 2 µg/mL (≈ 2.73 µM) | 1 µg/mL (≈ 1.36 µM) | 0.25 µg/mL (≈ 0.341 µM) | 0.5 µg/mL (≈ 0.681 µM) | 0.06 µg/mL (≈ 0.0818 µM) | 175 mg/kg | 361 mg/kg | 101 mg/kg | 234 mg/kg | 0.25 µg/mL (≈ 0.341 µM) | 64 µg/mL (≈ 87.2 µM) |  |  |  |  | 4 µg/mL (≈ 5.45 µM) | > 64 µg/mL | 1 µg/mL (≈ 1.36 µM) | 1 µg/mL (≈ 1.36 µM) | poorest | MIC [13]: 5 µg/mL (≈ 6.81 µM)
4 | CC[C@H]1OC(=O)[C@H](C)[C@@H](O[C@H]2C[C@@](C)(OC)[C@@H](O)[C@H](C)O2)[C@H](C)[C@@H](O[C@@H]2O[C@H](C)C[C@H](N(C)C)[C@H]2O)[C@](C)(O)C[C@@H](C)CN(C)[C@H](C)[C@@H](O)[C@]1(C)O [azithromycin, reference compound] | 1 µg/mL (≈ 1.34 µM) | 1 µg/mL (≈ 1.34 µM) | 0.12 µg/mL (≈ 0.16 µM) | 0.5 µg/mL (≈ 0.668 µM) | 0.06 µg/mL (≈ 0.0801 µM) | 147 mg/kg | 159 mg/kg | 46.9 mg/kg | 68.5 mg/kg | 0.25 µg/mL (≈ 0.334 µM) | 8 µg/mL (≈ 10.7 µM) | 7.6% | 92.86% | 89.61% | 2 µg/mL (≈ 2.67 µM) | 8 µg/mL (≈ 10.7 µM) | > 64 µg/mL | 0.12 µg/mL (≈ 0.16 µM) | 0.5 µg/mL (≈ 0.668 µM) |  | 
5 | CCC(=O)OC1CC(=O)OC(C)C/C=C/C=C/C(OC2CCC(N(C)C)C(C)O2)C(C)CC(CC=O)C(OC2OC(C)C(OC3CC(C)(O)C(OC(=O)CC(C)C)C(C)O3)C(N(C)C)C2O)C1OC (centres unmarked) [Levoisovalerylspiramycin III, levoisovalerylspiramycin III] | 0.25 µg/mL (≈ 0.254 µM) | 0.25 µg/mL (≈ 0.254 µM) | 0.06 µg/mL (≈ 0.061 µM) | 0.25 µg/mL (≈ 0.254 µM) | 0.03 µg/mL (≈ 0.0305 µM) | 70.2 mg/kg | 63.2 mg/kg | 24.6 mg/kg | 52.8 mg/kg | 0.12 µg/mL (≈ 0.122 µM) | 4 µg/mL (≈ 4.07 µM) | 2.5% | 97.56% | 92.30% | 1 µg/mL (≈ 1.02 µM) | 2 µg/mL (≈ 2.03 µM) | 64 µg/mL (≈ 65.1 µM) | 0.12 µg/mL (≈ 0.122 µM) | 0.25 µg/mL (≈ 0.254 µM) | favorable Uu resistant effect | LD50 at 1 week ([3]; mouse, in vivo, po): > 4000 mg/kg; Mortality rate (%) ([3]; mouse, in vivo, po, 1 week): 35%; mortality ([3]; mouse, in vivo, po, 1 week): 7
